# From ChEMBL document CHEMBL4002566, “S-substituted 3,5-dinitrophenyl 1,3,4-oxadiazole-2-thiols and tetrazole-5-thiols as highly efficient antitubercular agents” (Eur J Med Chem, 2017)
# Tests used:
# Format in all cases: functional
# Mycobacterium kansasii [1] = assay: Antimycobacterial activity against Mycobacterium kansasii CNCTC My 235/80 after 21 days by micromethod; settings: CNCTC My 235/80, 504 h
# Mycobacterium avium [2] = assay: Antimycobacterial activity against Mycobacterium avium CNCTC My 330/88 after 21 days by micromethod; settings: CNCTC My 330/88, 504 h
# Mycobacterium kansasii [3] = assay: Antimycobacterial activity against Mycobacterium kansasii 6509/96 clinical isolate after 7 days by micromethod; settings: 6509/96, 168 h
# [4] = system: Mycobacterium tuberculosis; assay: Antimycobacterial activity against Mycobacterium tuberculosis CNCTC My 331/88 after 21 days by micromethod; settings: CNCTC My 331/88, 504 h
# Mycobacterium kansasii [5] = assay: Antimycobacterial activity against Mycobacterium kansasii 6509/96 clinical isolate after 14 days by micromethod; settings: 6509/96, 336 h
# Mycobacterium kansasii [6] = assay: Antimycobacterial activity against Mycobacterium kansasii CNCTC My 235/80 after 7 days by micromethod; settings: CNCTC My 235/80, 168 h
# [7] = system: Mycobacterium tuberculosis; assay: Antimycobacterial activity against Mycobacterium tuberculosis CNCTC My 331/88 after 14 days by micromethod; settings: CNCTC My 331/88, 336 h
# Mycobacterium kansasii [8] = assay: Antimycobacterial activity against Mycobacterium kansasii 6509/96 clinical isolate after 21 days by micromethod; settings: 6509/96, 504 h
# Mycobacterium avium [9] = assay: Antimycobacterial activity against Mycobacterium avium CNCTC My 330/88 after 14 days by micromethod; settings: CNCTC My 330/88, 336 h
# Mycobacterium kansasii [10] = assay: Antimycobacterial activity against Mycobacterium kansasii CNCTC My 235/80 after 14 days by micromethod; settings: CNCTC My 235/80, 336 h
# Candida albicans = assay: Antifungal activity against Candida albicans ATCC 44859 after 24 hrs by broth microdilution method; settings: ATCC 44859, 24 h
# Lichtheimia corymbifera = assay: Antifungal activity against Absidia corymbifera 272 after 24 hrs by broth microdilution method; settings: Lichtheimia corymbifera, 272, 24 h
# [11] = system: Trichophyton mentagrophytes; assay: Antifungal activity against Trichophyton mentagrophytes 445 after 72 hrs by broth microdilution method; settings: Trichophyton mentagrophytes, 445, 72 h
# Aspergillus fumigatus = assay: Antifungal activity against Aspergillus fumigatus 231 after 24 hrs by broth microdilution method; settings: Aspergillus fumigatus, 231, 24 h
# Trichosporon asahii = assay: Antifungal activity against Trichosporon asahii 1188 after 24 hrs by broth microdilution method; settings: Trichosporon asahii, 1188, 24 h
# Candida tropicalis = assay: Antifungal activity against Candida tropicalis 156 after 24 hrs by broth microdilution method; settings: Candida tropicalis, 156, 24 h
# Pichia kudriavzevii = assay: Antifungal activity against Candida krusei E28 after 24 hrs by broth microdilution method; settings: E28, 24 h
# Escherichia coli = assay: Antibacterial activity against Escherichia coli ATCC 8739 after 24 hrs by broth microdilution method
# Klebsiella pneumoniae [12] = assay: Antibacterial activity against Klebsiella pneumoniae HK11750/08 after 24 hrs by broth microdilution method
# Klebsiella pneumoniae [13] = assay: Antibacterial activity against extended spectrum beta-lactamase producing Klebsiella pneumoniae HK14368/08 after 24 hrs by broth microdilution method
# Pseudomonas aeruginosa = assay: Antibacterial activity against Pseudomonas aeruginosa ATCC 9027 after 24 hrs by broth microdilution method
Molecule,MIC (Mycobacterium kansasii [1]) [µM],MIC (Mycobacterium avium [2]) [µM],MIC (Mycobacterium kansasii [3]) [µM],MIC [4] [µM],MIC (Mycobacterium kansasii [5]) [µM],MIC (Mycobacterium kansasii [6]) [µM],MIC [7] [µM],MIC (Mycobacterium kansasii [8]) [µM],MIC (Mycobacterium avium [9]) [µM],MIC (Mycobacterium kansasii [10]) [µM],further results
Nc1cc(-c2nnc(SCc3ccc(Br)cc3)o2)cc([N+](=O)[O-])c1,125,125,125,125,125,125,125,125,125,125,–
O=[N+]([O-])c1cc(O)cc(-c2nnc(SCc3ccc(Cl)c(Cl)c3)o2)c1,> 250,> 250,> 250,> 250,> 250,> 250,> 250,> 250,> 250,> 250,–
OC(Cn1cncn1)(Cn1cncn1)c1ccc(F)cc1F [FLUCONAZOLE],–,–,–,–,–,–,–,–,–,–,MIC (Candida albicans): 0.82 µM; MIC (Lichtheimia corymbifera): > 500 µM; MIC [11]: 105 µM; MIC (Aspergillus fumigatus): > 500 µM; MIC (Trichosporon asahii): 210 µM; MIC (Candida tropicalis): 1.6 µM; MIC (Pichia kudriavzevii): 105 µM
COc1ccc(CSc2nnc(-c3cc([N+](=O)[O-])cc(C(F)(F)F)c3)o2)cc1,4,> 250,1,0.5,2,2,0.5,2,> 250,4,–
O=[N+]([O-])c1cc(-c2nnc(SCc3ccc(Cl)cc3Cl)o2)cc([N+](=O)[O-])c1,0.06,250,0.03,0.03,0.03,0.03,0.03,0.03,250,0.06,–
GENTAMICIN,–,–,–,–,–,–,–,–,–,–,MIC (Escherichia coli): 0.26 µM; MIC (Klebsiella pneumoniae [12]): 0.26 µM; MIC (Klebsiella pneumoniae [13]): 0.26 µM; MIC (Pseudomonas aeruginosa): 1 µM
CC(=O)Nc1cc(-c2nnc(SCc3ccc(Br)cc3)o2)cc([N+](=O)[O-])c1,> 500,> 500,> 500,> 500,> 500,> 500,> 500,> 500,> 500,> 500,–
O=[N+]([O-])c1cc(-c2nnc(SCc3ccccc3)o2)cc(C(F)(F)F)c1,4,> 250,2,1,4,2,1,4,> 250,4,–
COc1ccc(CSc2nnc(-c3cc(N)cc([N+](=O)[O-])c3)o2)cc1,250,250,250,125,250,250,125,250,250,250,–
CCCSc1nnc(-c2cc([N+](=O)[O-])cc([N+](=O)[O-])c2)o1,2,8,1,0.5,2,1,0.25,4,8,2,–
COc1ccc(CSc2nnc(-c3cc(NC(C)=O)cc([N+](=O)[O-])c3)o2)cc1,> 1000,> 500,> 1000,> 1000,> 1000,> 1000,> 1000,> 1000,> 500,> 1000,–
O=[N+]([O-])c1cc(-c2nnc(SCc3ccc(Cl)c(Cl)c3)o2)cc(C(F)(F)F)c1,1,> 250,0.5,0.5,1,0.5,0.5,1,> 250,1,–
CC(=O)Nc1cc(-c2nnc(SCc3ccc(Cl)cc3)o2)cc([N+](=O)[O-])c1,> 1000,> 1000,> 1000,250,> 1000,> 1000,250,> 1000,> 1000,> 1000,–
